According to patent US20130116206A1, “QUINOLINE DERIVATIVES USED AS PET IMAGING AGENTS” (IMPERIAL INNOVATIONS LIMITED, priority 2009, published 2013):
Where a name gives a salt, the structure may show the parent alone. Read-outs that look alike come from different tables or passages of the source.

Assays:
[1] = target: T1, EGFR kinase (Homo sapiens, UniProt P00533); assay: EGFR tyrosine kinase enzyme inhibition assay (cell free, DELFIA time resolved fluorescence); type: biochemical; conditions: for IC50 / EGFR kinase activity IC50, range in words: cell free kinase assay
T1 construct: purchased Sigma E-3641
T1 sequence (P00533 25-1210): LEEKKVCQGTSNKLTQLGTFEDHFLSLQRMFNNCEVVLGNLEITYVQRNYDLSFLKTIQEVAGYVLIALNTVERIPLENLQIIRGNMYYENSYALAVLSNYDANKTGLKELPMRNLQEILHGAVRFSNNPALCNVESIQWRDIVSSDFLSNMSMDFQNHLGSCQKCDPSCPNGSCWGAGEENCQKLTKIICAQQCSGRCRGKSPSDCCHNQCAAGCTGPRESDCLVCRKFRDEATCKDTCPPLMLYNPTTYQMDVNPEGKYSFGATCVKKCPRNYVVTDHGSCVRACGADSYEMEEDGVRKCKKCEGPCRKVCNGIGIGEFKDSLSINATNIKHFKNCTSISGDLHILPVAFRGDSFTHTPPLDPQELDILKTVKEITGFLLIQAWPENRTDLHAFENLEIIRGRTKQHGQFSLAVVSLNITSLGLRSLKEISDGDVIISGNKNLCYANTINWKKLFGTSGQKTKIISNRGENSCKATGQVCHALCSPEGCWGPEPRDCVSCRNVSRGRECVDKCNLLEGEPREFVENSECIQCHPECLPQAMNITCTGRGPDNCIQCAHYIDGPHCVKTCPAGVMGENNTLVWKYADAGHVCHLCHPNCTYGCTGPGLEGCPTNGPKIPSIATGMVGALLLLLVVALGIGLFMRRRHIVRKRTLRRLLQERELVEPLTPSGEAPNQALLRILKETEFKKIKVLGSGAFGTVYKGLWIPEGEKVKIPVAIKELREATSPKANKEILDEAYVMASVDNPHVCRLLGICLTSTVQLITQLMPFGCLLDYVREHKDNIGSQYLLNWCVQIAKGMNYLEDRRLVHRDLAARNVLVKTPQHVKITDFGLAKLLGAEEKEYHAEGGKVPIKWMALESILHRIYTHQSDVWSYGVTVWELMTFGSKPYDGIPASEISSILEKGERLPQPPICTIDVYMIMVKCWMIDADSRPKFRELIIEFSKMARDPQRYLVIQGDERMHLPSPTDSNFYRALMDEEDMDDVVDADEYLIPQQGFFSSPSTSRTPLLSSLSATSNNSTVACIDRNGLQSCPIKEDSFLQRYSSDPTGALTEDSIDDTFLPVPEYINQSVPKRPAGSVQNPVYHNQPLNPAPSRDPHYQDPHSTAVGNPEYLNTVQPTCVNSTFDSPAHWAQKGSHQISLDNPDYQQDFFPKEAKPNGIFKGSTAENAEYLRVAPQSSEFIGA
Description: Assessment of the EGFR tyrosine kinase activity of control quinoline 1 together with quinolines 10, 13, 14, 17, 18, 24 and 25 was carried out using a cell free kinase activity inhibition assay as detailed below. BPDQ (4-N-(3-bromophenyl)quinazoline-4,6,7-triamine), a quinazoline based EGFR inhibitor was also included in this assay as a further reference standard.
The inhibitory activity of quinolines 1, 10, 13, 14, 17, 18, 24 and 25 against EGFR kinase activity was measured by a time resolved fluorescence assay (DELFIA, Perkin-Elmer Life Sciences, Boston, Mass., USA). […] The reaction proceeded at rt for 1 h and was stopped by addition of 100 mM EDTA. The enzyme reaction solution was diluted and aliquots added to 96-well ELISA streptavidin plates with shaking for 1 h. The plates were washed and phosphorylated Tyrosine was detected with Eu-labeled antiphosphotyrosine antibody (50 ng/well; PT66; PerkinElmer). After washing and enhancement steps, the plates were assessed in a Victor^3 multi-label counter (PerkinElmer) using the EGFR Europium protocol.

[2] = target: T2, EGFR autophosphorylation in A431 cells (Homo sapiens, UniProt P00533); assay: Inhibition of EGFR autophosphorylation in A431 cells (Western blot p-EGFR/total EGFR); type: cell-based; conditions: for IC50: 3 h drug incubation then washing with drug free medium, mean ± sem, n = 3
T2 construct: highly EGFR-expressing A431 cells; endogenous in cells; host or cells: A431 human epidermoid cancer cells (ATCC)
T2 sequence (P00533 25-1210): as above
Description: The ability of the compounds to be transported across cell membranes and to inhibit EGFR autophosphorylation was examined in highly EGFR-expressing A431 cells.
The cells were maintained in DMEM (Sigma-Aldrich Company Ltd, Dorset, UK) supplemented with 10% fetal bovine serum (Lonza, UK), and 2 mM L-glutamine, 100 U/ml penicillin, 100 μg/mL streptomycin and 1 μg/mL fungizone (GIBCO) in 6 well plates incubated at 37° C. in a humidified incubator with 5% CO2. The experiments were designed to assess irreversibility of EGFR inhibition by the compounds. Cells in exponential growth were incubated with quinolines 1, 10, 13, 14, 17, 18, 24 and 25 at various concentrations for 3 h. EGF (100 ng/ml) was added to the cells during the last 15 min to induce p-EGFR. The medium was removed and replaced with fresh compound-free medium for 1 h. The last step was then repeated twice. The cells were then washed with cold PBS and lysed in RIPA buffer (Invitrogen Ltd, Paisley, UK) supplemented with protease and phosphatase inhibitor cocktails (Sigma-Aldrich Company Ltd, Dorset, UK). Lysates were clarified by centrifugation. The following antibodies were used: rabbit polyclonal antibody anti-p-EGFR (Cell signalling Technology, Denver, Mass.; 1:1000) and rabbit polyclonal antibody anti-EGFR (Santa Cruz Biotechnology, Santa Cruz, Calif.; 1:1000) and mouse monoclonal antibody anti-β-actin (Abcam, UK; 1:10000) as primary antibodies. The secondary antibodies were Goat anti Rabbit IgG HRP (Santa Cruz Biotechnology Santa Cruz, Calif.; 1:2000) and Goat anti Mouse IgG HRP (Autogen Bioclear, UK; 1:2000). The same procedure was used to assess EGFR and phospho-EGFR expression in HCT116 human colon carcinoma cells.

[3] = 25 μM ATP, read-out: IC50 (nM) EGFR kinase activity

| SMILES | IC50 [1, 3] | EGFR kinase activity IC50, range in words [1] | Cellular EGFR autophosphorylation inhibition, IC50 in words [2] | IC50 [2] | EGFR kinase activity relative to quinoline 18 ([1]; 17 compared with 18) | IC50 ([1]; read-out: EGFR kinase activity IC50) |
| --- | --- | --- | --- | --- | --- | --- |
| Nc1cc2ncnc(Nc3cccc(Br)c3)c2cc1N [BPDQ, 4-N-(3-bromophenyl)quinazoline-4,6,7-triamine, reference compound] | 0.81 ± 0.01 nM |  |  |  |  |  |
| CCOc1cc2ncc(C#N)c(Nc3ccc(F)c(Cl)c3)c2cc1NC(=O)/C=C/CN(C)CCF [compound 13, (E)-4-[(2-Fluoroethyl)methylamino]-but-2-enoic acid [4-(3-chloro-4-fluorophenylamino)-3-cyano-7-ethoxyquinoline-6-yl]amide] | 0.8 ± 0.04 nM | sub-nanomolar | low nanomolar range | 23 ± 12 nM |  |  |
| CCOc1cc2ncc(C#N)c(Nc3ccc(F)c(Cl)c3)c2cc1NC(=O)/C=C/CN(C)Cc1ccc(F)cc1 [compound 14, (E)-4-[(4-Fluorobenzyl)methylamino]-but-2-enoic acid [4-(3-chloro-4-fluorophenylamino)-3-cyano-7-ethoxyquinoline-6-yl]amide] | 0.57 ± 0.12 nM | sub-nanomolar | low nanomolar range | 16.5 ± 8.38 nM |  |  |
| CCOc1cc2ncc(C#N)c(Nc3ccc(F)c(Cl)c3)c2cc1NC(=O)/C=C/CNCc1cn(CCF)nn1 [compound 17, (E)-4-{[1-(2-Fluoro-ethyl)-1H-[1,2,3]triazol-4-ylmethyl]-amino}-but-2-enoic acid [4-(3-chloro-4-fluoro-phenylamino)-3-cyano-7-ethoxy-quinolin-6-yl]-amide hydrochloride] | 1.81 ± 0.18 nM |  | low nanomolar range | 22 ± 9.06 nM | two-fold more active than 18 |  |

Next, values leading:

| IC50 [1, 3] | EGFR kinase activity IC50, range in words [1] | Cellular EGFR autophosphorylation inhibition, IC50 in words [2] | IC50 [2] | EGFR kinase activity relative to quinoline 18 ([1]; 17 compared with 18) | IC50 ([1]; read-out: EGFR kinase activity IC50) | SMILES |
| --- | --- | --- | --- | --- | --- | --- |
| 0.25 ± 0.06 nM | sub-nanomolar | low nanomolar range | 5.35 ± 1.52 nM |  |  | CCOc1cc2ncc(C#N)c(Nc3ccc(F)c(Cl)c3)c2cc1NC(=O)/C=C/CNC [compound 10, (E)-4-(Methylamino)-but-2-enoic acid [4-(3-chloro-4-fluorophenylamino)-3-cyano-7-ethoxy-quinoline-6-yl]amide] |
| 0.29 ± 0.03 nM |  | low nanomolar range | 8.12 ± 2.03 nM |  |  | CNC/C=C/C(=O)Nc1cc2c(Nc3ccc(F)c(Cl)c3)c(C#N)cnc2cc1OCCF.Cl [compound 24, (E)-4-Methylamino-but-2-enoic acid [4-(3-chloro-4-fluorophenylamino)-3-cyano-7-(2-fluoroethoxy)-quinolin-6-yl]-amide hydrochloride] |
|  |  | low nanomolar range | 60.2 ± 17.1 nM |  | 0.03 nM | C#CCNC/C=C/C(=O)Nc1cc2c(Nc3ccc(F)c(Cl)c3)c(C#N)cnc2cc1OCC.Cl [compound 25, (E)-4-Prop-2-ynylaminobut-2-enoic acid [4-(3-chloro-4-fluorophenylamino)-3-cyano-7-ethoxy-quinolin-6-yl]-amide hydrochloride] |
